Laboratory results as given in patent US7452693B2, “Discrete acyltransferases associated with type I polyketide synthases and methods of use” (Wisconsin Alumni Research Foundation, priority 2001, dated 2008).

Legend:
[1] = test system: HELA S3, sarcoma 180, B-16, Colon 26, and leukemia P388; details: cited from earlier work
[2] = test system: S. atroolivaceus; test: Growth inhibition of S. atroolivaceus by antibiotics; type: cell-based, Streptomyces atroolivaceus; details: for concentration for complete inhibition of growth: S. atroolivaceus; for sensitivity of S. atroolivaceus: in words
Procedure: S. atroolivaceus grows very well at 30° C.; it doesn't grow at temperature beyond 35° C. […] Thus, E. coli—Streptomyces shuttle vectors pOJ260 (suicide vector, Am^R) and pKC1139 (self-replicating vector, Am^R) were chosen to make the gene-disruption constructs pYC12 and pYC20, respectively. The concentration of antibiotic (Am) for selection of transformants/exconjugates is 50 μg/ml.

In the case of C/C1=C\[C@@H](O)C(=O)/C=C/C=C\c2csc(n2)[C@@H](C)NC(=O)C[C@@]2(CC1)[S+]([O-])SC(=O)[C@]2(C)O (stereo partly shown) [Lnm, Leinamycin], the “activity against drug-resistant tumors” value ([1]; murine models inoculated with tumors resistant to cisplatin, doxorubicin, mitomycin, or cyclophosphamide) is given as “active” and the antitumor activity ([1]; murine tumor models in vivo) is given as “potent antitumor activity”.
For CN[C@@H]1[C@@H](O[C@H]2O[C@H](CO)[C@@H](N)[C@H](O)[C@H]2O)OC2C[C@@H](N)[C@@H](O[C@H]3[C@H](O)[C@@H](O)[C@H](N)C[C@@H]3N)OC2[C@@H]1O (stereo partly shown) [apramycin], the “concentration for complete inhibition of growth” value [2] was 10 µg/mL, the “sensitivity of S. atroolivaceus” value [2] was “sensitive” and the “sensitivity of S. atroolivaceus” value ([2]; listed as apromycin) was “highly sensitive”.
For C=C(NC(=O)C(=C)NC(=O)c1csc(C2=N[C@@H]3c4csc(n4)[C@H]4NC(=O)c5csc(n5)[C@H]([C@](C)(O)[C@@H](C)O)NC(=O)[C@H]5CSC(=N5)/C(=C/C)NC(=O)[C@H]([C@@H](C)O)NC(=O)c5csc(n5)[C@]3(CC2)NC(=O)[C@H](C)NC(=O)C(=C)NC(=O)[C@H](C)NC(=O)[C@H]([C@@H](C)CC)N[C@@H]2C=Cc3c([C@H](C)O)cc(nc3[C@H]2O)C(=O)O[C@@H]4C)n1)C(N)=O [thiostrepton], the “concentration for complete inhibition of growth” value [2] was 3 µg/mL and the “sensitivity of S. atroolivaceus” value [2] was “highly sensitive”.
